biological target: T1, human D1 receptors (Homo sapiens, UniProt P21728); experiment: Radioligand binding competition assay at D1 receptor; settings: not given
T1 construct: expressed in transfected cells; host or cells: Ltk- cells (mouse fibroblasts); membrane preparation
Method: (§1) Affinity values (Ki) of compounds at human D1 and D2 receptors were ascertained using radioligand binding competition assays. Ltk-cells expressing D1 and D2 (long variant) receptors were lysed in hypotonic buffer for membrane preparation. Membranes were incubated with various concentrations of test compound and 1 nM [3H] of a compound of formula III and 0.2 nM [3H] Methylspiperone for D1 and D2 assays, respectively. Non-specific binding was defined as binding in the presence of 10 micromolar of a compound of formula III for D1 assays and 10 micromolar butaclamol for […]. Following incubation to equilibrium (1 hour at room temperature), bound radioligand was separated from free by rapid filtration. Bound radioactivity on the dried filters was quantified by liquid scintillation counting.
(§2) Selectivity is determined by dividing Ki for D2 receptor by Ki for D1 receptor.

T1 sequence (P21728 whole entry): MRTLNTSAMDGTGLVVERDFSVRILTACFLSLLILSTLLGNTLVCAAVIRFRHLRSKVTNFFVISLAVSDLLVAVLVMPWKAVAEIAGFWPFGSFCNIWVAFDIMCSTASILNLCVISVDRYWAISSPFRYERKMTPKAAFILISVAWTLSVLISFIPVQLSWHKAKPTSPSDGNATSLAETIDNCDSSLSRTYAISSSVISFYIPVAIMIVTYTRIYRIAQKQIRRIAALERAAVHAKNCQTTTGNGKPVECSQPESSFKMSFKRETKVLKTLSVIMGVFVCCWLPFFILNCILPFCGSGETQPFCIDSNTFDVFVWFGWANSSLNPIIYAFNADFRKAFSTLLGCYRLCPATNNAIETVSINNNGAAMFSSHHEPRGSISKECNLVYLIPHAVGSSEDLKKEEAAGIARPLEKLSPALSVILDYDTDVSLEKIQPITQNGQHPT

| SMILES | Ki |
| --- | --- |
| CC(=O)Nc1ccc2c(c1)CC[C@H]1[C@H]2c2cc(O)c(Cl)cc2CCN1C [18a4] | < 10 nM |
| CCS(=O)(=O)Nc1ccc2c(c1)CC[C@H]1[C@H]2c2cc(O)c(Cl)cc2CCN1C [19b5] | < 5 nM |
| COc1ccc(OC(=O)Nc2cccc3c2CC[C@H]2[C@H]3c3cc(O)c(Cl)cc3CCN2C)cc1 [24b2] | < 5 nM |
| CN1CCc2cc(Cl)c(O)cc2[C@H]2c3ccc(NC(=O)CC4CC4)cc3CC[C@@H]21 [18a8] | < 10 nM |
| CN1CCc2cc(Cl)c(O)cc2[C@H]2c3ccc(NC(=O)C4CCCC4)cc3CC[C@@H]21 [18a6] | < 5 nM |
| CN1CCc2cc(Cl)c(O)cc2[C@H]2c3ccc(NC(=O)Nc4c(Cl)cccc4Cl)cc3CC[C@@H]21 [20b30] | < 5 nM |
| CCNC(=O)Nc1ccc2c(c1)CC[C@H]1[C@H]2c2cc(O)c(Cl)cc2CCN1C [20b6] | < 5 nM |
| COc1ccc(OC(=O)Nc2ccc3c(c2)CC[C@H]2[C@H]3c3cc(O)c(Cl)cc3CCN2C)cc1 [24a3] | < 5 nM |
| CN1CCc2cc(Cl)c(O)cc2[C@H]2c3ccc(NCC4CCCC4)cc3CC[C@@H]21 [21a2] | < 5 nM |

Further lines, results first:

| Ki | SMILES |
| --- | --- |
| < 10 nM | CN1CCc2cc(Cl)c(O)cc2[C@H]2c3ccc(NC(=O)Nc4ccccc4Cl)cc3CC[C@@H]21 [20b5] |
| < 5 nM | CCCS(=O)(=O)Nc1ccc2c(c1)CC[C@H]1[C@H]2c2cc(O)c(Cl)cc2CCN1C [19b23] |
| < 10 nM | CN1CCc2cc(Cl)c(O)cc2[C@H]2c3cccc(NS(=O)(=O)c4ccc(F)cc4)c3CC[C@@H]21 [19a6] |
| < 5 nM | CN1CCc2cc(Cl)c(O)cc2[C@H]2c3cccc(NC(=O)N4CCCC4)c3CC[C@@H]21 [20a7] |
| < 5 nM | CN1CCc2cc(Cl)c(O)cc2[C@H]2c3ccc(NS(=O)(=O)Cc4ccccc4)cc3CC[C@@H]21 [19b31] |
| < 5 nM | CN(C)C(=O)Nc1cccc2c1CC[C@H]1[C@H]2c2cc(O)c(Cl)cc2CCN1C [20a8] |
| 10 to 50 nM | CN1CCc2cc(Cl)c(O)cc2[C@H]2c3cccc(NC(=O)c4cccc5ccccc45)c3CC[C@@H]21 [18b15] |
| < 10 nM | CN1CCc2cc(Cl)c(O)cc2[C@H]2c3ccc(NS(=O)(=O)c4cccc(C#N)c4)cc3CC[C@@H]21 [19b24] |
| 10 to 50 nM | CN1CCc2cc(Cl)c(O)cc2[C@H]2c3cccc(NC(=O)Nc4cc(Cl)nc(Cl)c4)c3CC[C@@H]21 [20a33] |
| 10 to 50 nM | CN1CCc2cc(Cl)c(O)cc2[C@H]2c3cc(S(=O)(=O)NCc4ccccc4)ccc3CC[C@@H]21 [15l] |
| < 5 nM | CN1CCc2cc(Cl)c(O)cc2[C@H]2c3ccc(NS(=O)(=O)N(C)C)cc3CC[C@@H]21 [19b32] |

same assay, conditions: class by Ki (D1) and selectivity (Ki D2 / Ki D1); human D1 and D2 (long variant) receptors, Ltk- cell membranes; read-out: D1 binding and D2:D1 Selectivity

| SMILES | Ki |
| --- | --- |
| CCCN(Cc1ccc(C2CN(C)CCc3cc(Cl)c(O)cc32)cc1)C(=O)Nc1ccccc1 (stereo not drawn) [8c33] | < 10 nM |
| CCOC(=O)Nc1ccc2c(c1)CC[C@H]1[C@H]2c2cc(O)c(Cl)cc2CCN1C [24a2] | < 5 nM |
| CC(=O)N(CCCCc1ccccc1)c1ccc2c(c1)[C@@H]1c3cc(O)c(Cl)cc3CCN(C)[C@H]1CC2 [22b1] | 10 to 50 nM |
| COC(=O)Nc1ccc2c(c1)CC[C@H]1[C@H]2c2cc(O)c(Cl)cc2CCN1C [24a1] | < 5 nM |
| CN1CCc2cc(Cl)c(O)cc2C2c3cccc(C(=O)N4CCN(c5ccccn5)CC4)c3CCC21 (stereo not drawn) [13a2] | < 10 nM |
| CN1CCc2cc(Cl)c(O)cc2[C@H]2c3cc(CN(Cc4ccccc4)C(=O)c4ccccc4)ccc3CC[C@@H]21 [6b1] | 10 to 50 nM |
| CS(=O)(=O)Nc1ccc2c(c1)CC[C@@H]1NCCc3cc(Cl)c(O)cc3[C@@H]21 [30a] | < 10 nM |
| CN1CCN(C(=O)c2cccc3c2CCC2C3c3cc(O)c(Cl)cc3CCN2C)CC1 (stereo not drawn) [13a6] | 10 to 50 nM |
| CN1CCc2cc(Cl)c(O)cc2C(c2ccc(NS(=O)(=O)c3ccccc3)cc2)C1 (stereo not drawn) [35a2] | < 10 nM |
| CC(=O)N(Cc1ccc(C2CN(C)CCc3cc(Cl)c(O)cc32)cc1)C1CCC1 (stereo not drawn) [6c26] | < 5 nM |
| CN1CCc2cc(Cl)c(O)cc2C(c2ccc(NS(C)(=O)=O)cc2)C1 (stereo not drawn) [35a1] | < 5 nM |
| CC(NC(=O)c1ccc(C2CN(C)CCc3cc(Cl)c(O)cc32)cc1)c1ccccc1 (stereo not drawn) [13d1] | 10 to 50 nM |
| CC(=O)N(Cc1ccc([C@H]2CNCCc3cc(Cl)c(O)cc32)cc1)C1CCC1 [34a2] | < 10 nM |
| CN1CCc2cc(Cl)c(O)cc2[C@H]2c3ccc(NC(=O)C4CC4)cc3CC[C@@H]21 [18a1] | < 5 nM |
| CC(C)NC(=O)N(Cc1ccc2c(c1)[C@@H]1c3cc(O)c(Cl)cc3CCN(C)[C@H]1CC2)c1ccccc1 [8b11] | < 100 nM |
| CN1CCc2cc(Cl)c(O)cc2[C@H]2c3cc(CNc4cccnc4)ccc3CC[C@@H]21 [5b46] | < 100 nM |
| C[C@@H](NCc1ccc(C2CN(C)CCc3cc(Cl)c(O)cc32)cc1)C1CCCCC1 (stereo partly drawn) [5c16] | < 5 nM |
| Oc1cc2c(cc1Cl)CCN[C@H]1CCc3c(-c4ccncc4)cccc3[C@H]21 [29c] | < 5 nM |
| CN1CCc2cc(Cl)c(O)cc2C(c2ccc(CN(C3CCC3)S(C)(=O)=O)cc2)C1 (stereo not drawn) [7c16] | < 5 nM |
| CC(=O)N(CC1CCCC1)c1ccc2c(c1)CC[C@H]1[C@H]2c2cc(O)c(Cl)cc2CCN1C [22a2] | 10 to 50 nM |
| CN1CCc2cc(Cl)c(O)cc2C(c2ccc(CN(C)S(=O)(=O)c3ccccc3)cc2)C1 (stereo not drawn) [7c18] | < 5 nM |

The remaining lines, values ahead:

| Ki | SMILES |
| --- | --- |
| < 10 nM | CN1CCc2cc(Cl)c(O)cc2C2c3cccc(C(=O)NCCc4ccccn4)c3CCC21 (stereo not drawn) [13a20] |
| 10 to 50 nM | CC(=O)N(Cc1cccc2c1CC[C@H]1[C@H]2c2cc(O)c(Cl)cc2CCN1C)c1ccccc1 [6a6] |
| < 5 nM | CN(C)Cc1cccc2c1CC[C@H]1[C@H]2c2cc(O)c(Cl)cc2CCN1C [5a50] |
| < 10 nM | CN1CCc2cc(Cl)c(O)cc2C2c3cccc(C(=O)NCc4ccccc4)c3CCC21 (stereo not drawn) [13a21] |
| < 10 nM | CN(C)C(=O)c1cccc2c1CCC1C2c2cc(O)c(Cl)cc2CCN1C (stereo not drawn) [13a12] |
| < 5 nM | CN1CCc2cc(Cl)c(O)cc2C2c3cccc(C(=O)NCCc4ccccc4)c3CCC21 (stereo not drawn) [13a7] |
| 10 to 50 nM | CCNC(=O)N(Cc1ccc(F)cc1)Cc1cccc2c1CC[C@H]1[C@H]2c2cc(O)c(Cl)cc2CCN1C [8a3] |
| < 10 nM | CN1CCc2cc(Cl)c(O)cc2C2c3cccc(C(=O)NCc4cccnc4)c3CCC21 (stereo not drawn) [13a16] |
| < 10 nM | CN1CCc2cc(Cl)c(O)cc2[C@H]2c3cccc(CNC(c4ccccc4)c4ccccc4)c3CC[C@@H]21 [5a14] |
| < 100 nM | CN1CCc2cc(Cl)c(O)cc2[C@H]2c3cc(CN(Cc4ccccc4)S(C)(=O)=O)ccc3CC[C@@H]21 [7b7] |
| < 10 nM | CN1CCc2cc(Cl)c(O)cc2[C@H]2c3cccc(C#N)c3CC[C@@H]21 [27a] |
| < 5 nM | CNC(=O)c1cccc2c1CCC1C2c2cc(O)c(Cl)cc2CCN1C (stereo not drawn) [13a24] |
| < 5 nM | CN1CCc2cc(Cl)c(O)cc2[C@H]2c3cccc(CNCc4ccccc4)c3CC[C@@H]21 [5a1] |
| < 5 nM | CN1CCc2cc(Cl)c(O)cc2[C@H]2c3ccc(N(C)S(C)(=O)=O)cc3CC[C@@H]21 [compound 23] |
| < 5 nM | CN1CCc2cc(Cl)c(O)cc2[C@H]2c3cccc(-c4ncc[nH]4)c3CC[C@@H]21 [25c] |
| < 10 nM | CN1CCc2cc(Cl)c(O)cc2C2c3cccc(C(=O)NCc4ccncc4)c3CCC21 (stereo not drawn) [13a19] |
| < 5 nM | CN1CCc2cc(Cl)c(O)cc2[C@H]2c3ccc(NS(C)(=O)=O)cc3CC[C@@H]21 [19b1] |
| < 5 nM | CN1CCc2cc(Cl)c(O)cc2[C@H]2c3cccc(CNC4CC4)c3CC[C@@H]21 [5a38] |
| < 10 nM | CN1CCc2cc(Cl)c(O)cc2C2c3cccc(C(=O)NCc4ccccn4)c3CCC21 (stereo not drawn) [13a14] |
| < 5 nM | CN1CCc2cc(Cl)c(O)cc2[C@H]2c3ccc(NCc4ccccc4)cc3CC[C@@H]21 [21a1] |

same assay, conditions: membranes of Ltk- cells expressing human D1; 1 nM [3H] compound of formula III; 1 hour at room temperature; read-out: Ki (D1)

| Ki | SMILES |
| --- | --- |
| 0.45 nM | CN1CCc2cc(Cl)c(O)cc2[C@H]2c3ccc(NS(C)(=O)=O)cc3CC[C@@H]21 [19b1] |

test system: human D1 receptors; experiment: as above; settings: Ki for D2 receptor divided by Ki for D1 receptor
Method: as §1, §2

| D2:D1 ratio (selectivity) | SMILES |
| --- | --- |
| 6642 | CN1CCc2cc(Cl)c(O)cc2[C@H]2c3ccc(NS(C)(=O)=O)cc3CC[C@@H]21 [19b1] |
